The target in data set [1] is T1, DPP IV (Mus musculus, UniProt P28843).
T1 construct: from tissue; host or cells: mouse plasma
Description: Inhibition of DPP IV activity in normal mice plasma. The data set is classed as in vivo.

For a further data set, the system named is Rat. Description: Subacute toxicity test in Rat. The class given is in vivo. To be noted: oral, 150 mg/kg group.
The subject of another data set is ICR mice. Description: Acute toxicity test in ICR mice. The data set is classed as in vivo. The following applies: 300 mg/kg group.
Data set [2] concerns the target T2, DPP IV (Rattus norvegicus, UniProt P14740).
T2 construct: from tissue; host or cells: rat plasma
Description: Inhibition of DPP IV activity in rat plasma. The class given is in vivo.

A short description of data set [3]: Pharmacokinetic study in rats. The class given is in vivo. To be noted: versus alogliptin.
Data set [4] has as its system gene-deficient db/db mice. Description: Chronic administration to gene-deficient db/db mice, fasting blood glucose. The class given is in vivo.
For the next data set, the system named is ob/ob mice. Description: Chronic administration to ob/ob mice, fasting blood glucose. The class given is in vivo.
In the next data set the test system is normal ICR mice. Description: Oral glucose tolerance in normal ICR mice. The data set is classed as in vivo.
Data set [5] is described as follows: Pharmacokinetic study in dogs. The class given is in vivo. The following applies: versus alogliptin.
Data set [6] concerns the target DPP IV (Homo sapiens, UniProt P27487). Description: DPP IV inhibitory activity and selectivity in vitro. The data set is classed as biochemical.
Data set [7] is described as follows: Stability of the crystal form. The class given is physicochemical.
Data set [8] is described as follows: Solubility compared with amorphous powder. The class given is physicochemical. To be noted: versus amorphous powder.
The nature of data set [9]: Hygroscopicity analysis (DVS). The class given is physicochemical. The protocol:
Dynamic vapor absorption (DVS) test/water absorption test is conducted by rapidly measuring the increase and loss of the moisture in the sample caused by flow carrier gas with setted relative humidity (RH). The sample is placed on a digital microbalance with high sensitivity and high stability at a self-suspension state, and then by measuring the increase/decrease of the material mass so as to measure the adsorption/desorption of water vapor, thereby determining the hygroscopicity of the sample.
In the present invention, the test parameters for DVS are as follows: Instrument type: SMS DVS Intrinsic; Non-hydrate: 0 to 95%-0% RH; Temperature: 25° C.; Hydrate: 40 to 95%-0% RH; Temperature: 25° C.

The nature of data set [10]: Oral absorption and bioavailability compared with amorphous powder. The following applies: versus amorphous powder. The class given is in vivo.
Data set [11] can be described thus: Oral hypoglycemic activity compared with amorphous powder. The class given is in vivo. The following applies: orally administered; versus amorphous powder.
The mark [12] stands for this setting: versus positive control alogliptin.

Like-named read-outs stand apart in the source and are kept apart here.

Sequence of DPP IV (Homo sapiens, UniProt P27487) (P27487 whole entry, species assumed): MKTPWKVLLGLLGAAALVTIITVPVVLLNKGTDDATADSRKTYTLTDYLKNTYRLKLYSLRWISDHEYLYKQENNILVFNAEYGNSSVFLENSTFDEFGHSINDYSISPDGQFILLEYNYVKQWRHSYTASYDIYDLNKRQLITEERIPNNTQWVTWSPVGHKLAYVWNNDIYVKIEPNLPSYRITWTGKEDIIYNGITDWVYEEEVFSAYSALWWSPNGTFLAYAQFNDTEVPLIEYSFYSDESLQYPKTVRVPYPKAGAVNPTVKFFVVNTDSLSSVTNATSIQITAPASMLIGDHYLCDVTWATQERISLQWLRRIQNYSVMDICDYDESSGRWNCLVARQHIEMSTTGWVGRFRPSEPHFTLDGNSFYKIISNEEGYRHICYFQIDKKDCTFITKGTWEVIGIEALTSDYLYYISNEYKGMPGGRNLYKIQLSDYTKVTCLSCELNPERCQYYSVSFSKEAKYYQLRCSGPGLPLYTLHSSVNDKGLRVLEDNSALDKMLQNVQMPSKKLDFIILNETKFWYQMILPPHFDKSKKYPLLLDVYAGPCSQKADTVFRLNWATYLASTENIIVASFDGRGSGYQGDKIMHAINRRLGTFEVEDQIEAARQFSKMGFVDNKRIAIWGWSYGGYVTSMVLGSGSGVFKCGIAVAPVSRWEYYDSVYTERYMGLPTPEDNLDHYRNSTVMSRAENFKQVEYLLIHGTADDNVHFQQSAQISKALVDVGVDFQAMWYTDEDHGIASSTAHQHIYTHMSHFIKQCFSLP
T2 sequence (P14740 37-767 limits assumed): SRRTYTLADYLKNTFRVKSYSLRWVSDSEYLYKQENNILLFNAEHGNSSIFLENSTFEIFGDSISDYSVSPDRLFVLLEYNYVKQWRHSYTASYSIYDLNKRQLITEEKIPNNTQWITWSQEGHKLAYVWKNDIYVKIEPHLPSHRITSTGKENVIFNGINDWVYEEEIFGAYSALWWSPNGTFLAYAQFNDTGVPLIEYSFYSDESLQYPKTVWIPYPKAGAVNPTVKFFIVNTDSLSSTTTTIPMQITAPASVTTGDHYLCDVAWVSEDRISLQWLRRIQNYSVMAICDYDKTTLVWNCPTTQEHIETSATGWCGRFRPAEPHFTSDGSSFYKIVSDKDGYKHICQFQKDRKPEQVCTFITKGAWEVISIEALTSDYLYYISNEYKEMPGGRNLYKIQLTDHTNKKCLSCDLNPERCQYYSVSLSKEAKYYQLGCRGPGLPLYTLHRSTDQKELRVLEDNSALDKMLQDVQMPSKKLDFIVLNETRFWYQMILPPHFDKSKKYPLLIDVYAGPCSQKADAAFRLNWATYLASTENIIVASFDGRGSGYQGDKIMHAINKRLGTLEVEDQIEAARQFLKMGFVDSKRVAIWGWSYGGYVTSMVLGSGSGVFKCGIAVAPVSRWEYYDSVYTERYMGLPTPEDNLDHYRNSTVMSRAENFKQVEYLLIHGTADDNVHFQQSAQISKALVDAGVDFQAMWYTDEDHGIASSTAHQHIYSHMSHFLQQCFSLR
T1 sequence (P28843 37-760 limits assumed): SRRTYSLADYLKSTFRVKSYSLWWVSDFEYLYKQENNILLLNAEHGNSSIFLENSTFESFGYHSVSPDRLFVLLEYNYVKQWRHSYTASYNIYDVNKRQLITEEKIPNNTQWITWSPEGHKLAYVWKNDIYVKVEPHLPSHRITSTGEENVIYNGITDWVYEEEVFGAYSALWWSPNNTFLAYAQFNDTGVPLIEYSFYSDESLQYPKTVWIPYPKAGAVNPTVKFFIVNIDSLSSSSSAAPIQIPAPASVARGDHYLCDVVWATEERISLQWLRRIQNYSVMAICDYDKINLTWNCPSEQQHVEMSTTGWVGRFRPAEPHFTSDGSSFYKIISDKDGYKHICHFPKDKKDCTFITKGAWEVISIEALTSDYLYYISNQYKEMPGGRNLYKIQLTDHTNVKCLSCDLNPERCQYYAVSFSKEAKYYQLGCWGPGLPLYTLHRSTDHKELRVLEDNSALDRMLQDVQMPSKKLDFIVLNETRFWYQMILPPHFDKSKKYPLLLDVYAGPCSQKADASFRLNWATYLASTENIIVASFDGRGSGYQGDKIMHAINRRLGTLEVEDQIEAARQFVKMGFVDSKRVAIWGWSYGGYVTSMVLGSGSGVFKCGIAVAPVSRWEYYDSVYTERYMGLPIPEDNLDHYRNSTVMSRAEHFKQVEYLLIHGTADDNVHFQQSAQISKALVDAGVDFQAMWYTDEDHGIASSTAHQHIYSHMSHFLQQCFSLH

Turning to `COC(=O)c1cc2nc(N3CCC[C@@H](N)C3)n(Cc3ccccc3C#N)c(=O)c2s1` [Formula I, (R)-methyl-2-(3-aminopiperidin-1-yl)-3-(2-cyanobenzyl)-4-carbonyl-3,4-dihydroth iophene[3,2-d] pyrimidine-6-carboxylic acid], the “DPP IV activity in plasma” value on DPP IV [1] and at DPP IV [2] was “effectively inhibit” each time. In addition, the “DPP IV inhibitory activity compared with alogliptin” value at DPP IV [1] (versus alogliptin) and at DPP IV [2] (versus alogliptin) was “superior” throughout. Besides, in the data set on Rat, the “toxicity in subacute toxicity test” value is on record as “no obvious toxicity”. Further, the “death in acute toxicity test” value with ICR mice is “no death”. The “AUC0-t compared with alogliptin” value in data set [3] and in data set [5] was “superior” throughout. The “half-life compared with alogliptin” value in data set [3] and in data set [5] was “superior” in each case. Also, the fasting blood glucose result in data set [4] is given as “can reduce”; with ob/ob mice it was “effectively reduce”. For the same molecule, the figures for the “fasting blood glucose reduction compared with alogliptin” value (in data set [4] (setting [12]); in the data set with ob/ob mice (setting [12])) were “comparable” and “superior”, respectively. In addition, the “effective dose for increasing oral glucose tolerance” value in the data set with normal ICR mice (dose-dependent) was determined as 0.1 mg/kg. The “effect on oral glucose tolerance compared with alogliptin” value in the data set on normal ICR mice (versus alogliptin) is “superior”. In addition, the “type of DPP IV inhibition” value on DPP IV [6] is “selective and reversible competitive”. For the same molecule, the inhibitory activity entry against DPP IV [6] (in vitro) is on record as “nanomolar level”. The “inhibitory activity and selectivity in vitro compared with sitagliptin and vildagliptin” value at DPP IV [6] (in vitro, versus listed drugs sitagliptin and vildagliptin) is on record as “superior”.
For the molecule `COC(=O)c1cc2nc(N3CCC[C@@H](N)C3)n(Cc3ccccc3C#N)c(=O)c2s1` [crystal form A, (R)-methyl-2-(3-aminopiperidin-1-yl)-3-(2-cyanobenzyl)-4-carbonyl-3,4-dihydrothiop hene[3,2-d] pyrimidine-6-carboxylic acid], in [7] (compared with the prior art), the “stability, in particular thermal stability” value is recorded as “better stability”. Further, the degradability result in data set [7] (conventional conditions) is “not easily degradable”. In addition, the “solubility compared with amorphous powder” value in data set [8] is “improve solubility”. Further, the figures for the hygroscopicity result in data set [9] and in data set [9] (relative humidity RH less than 50%) were “less than 1%” and “less than 0.3%”, respectively. The molecule further had a moisture content in data set [9] (40% RH) of 0.26%. The moisture absorbed in data set [9] (65% RH) came out at 0.42%; in [9] (80% RH), 0.57%. Further, the “hygroscopicity (DVS)” value in data set [9] (FIG. 5, crystal of Example 1) is given as “slight hygroscopicity”. Besides, the “variation range of humidity” value in data set [9] (range of conventional storage humidity) is “smaller than 2.0%”. In addition, in [10], the “oral absorption ability compared with amorphous powder” value is on record as “enhance oral absorption ability”. In addition, the “hypoglycemic activity compared with amorphous powder” value in [11] was “better”.

The values above are taken from US10392401B2, “Crystal form A of compound and preparation method thereof” (SHANGHAI INSTITUTE OF MATERIA MEDICA, CHINESE ACADEMY OF …, priority 2015, dated 2019).
